Measured values published in article PMC7093396 (Scientific Reports, 2020).
Converted amounts (≈) assume the structure as drawn.

Assays:
[1] = system: T1, E. coli BW25113; test: microbe, parasite or virus in culture; parameters: Broth dilution growth at OD600 in Ca/HEPES:YPSC, 29 °C, Gompertz-fit MIC; settings: Escherichia coli, BW25113, 24 h; Ca/HEPES:YPSC, 29 °C, non-standard MIC
T1 construct: BW25113
Description: Serial antibiotic dilutions in 100 µL Ca/HEPES were made along the rows of 96-well plates including controls without antibiotic. E. coli BW25113 cells from an overnight culture were washed and re-suspended in Ca/HEPES buffer to a final OD600 of 0.024. Aliquots of 50 µL of this E. coli suspension and 50 µL of a fresh YPSC broth were added to the wells of these plates and the blank measured at 600 nm. Final OD600 measurements were carried out after an incubation of 24 hours at 29 °C under shaking conditions. Data is shown as percentage of growth and plotted in a graph against the logarithm of antibiotic concentration. MIC values were calculated by fitting data with a Gompertz modified equation[15] (using GraphPad Prism 5). […] Antibiotics characterized by a high B. bacteriovorus/E. coli MIC ratio, such as amikacin, kanamycin, gentamicin and aztreonam (Table 1), are of particular interest for a B. bacteriovorus based co-therapy against E. coli infections.

[2] = system: T2, B. bacteriovorus HD100; test: microbe, parasite or virus in culture; parameters: species or system B. bacteriovorus HD100 with E. coli BW25113 prey; Predatory growth on E. coli prey, OD600 reduction, Gompertz-fit MIC by linear regression at PPR 0.02; settings: Escherichia coli, HD100, 24 h; co-culture with E. coli BW25113 prey, theoretical MIC at PPR 0.02
T2 construct: HD100
Description: Two-fold serial dilutions of antibiotics (Table S6) were made along the rows of 96-well plates (BRANDplates pureGrade^TM S, no. 781662) in 100 µL Ca/HEPES buffer (5.94 g/L HEPES free acid, 0.284 g/L calcium chloride 2·H2O, adjusted to pH 7.6 with NaOH), including controls (no antibiotic present). B. bacteriovorus cultures were diluted by a factor of 25 in Ca/HEPES buffer. B. bacteriovorus two-fold serial dilutions were prepared in a new sterile 96-well plate along the column line (using as diluent a suspension of heat-inactivated B. bacteriovorus), including controls (no viable B. bacteriovorus present). Fifty µL of these dilution series were transferred from each well of the latter plate to the corresponding wells of plates with antibiotic dilution series. Subsequently, 50 µL of an E. coli BW25113 overnight culture grown in YPSC broth was added to each plate well. At this point, which corresponds to time zero, the blank was determined by measuring the OD600 of cell suspensions in a plate reader (TECAN Infinite 200 Pro). Final OD600 measurements were carried out after an incubation of 24 hours at 29 °C under shaking conditions (300 rpm, 3 mm throw). The number of E. coli cells was estimated by reading the OD600 of the overnight culture prior to the beginning of the assay. The number of viable B. bacteriovorus cells was estimated by plating in double layer YPSC agar plates as explained elsewhere. Following an incubation time of three days at 29 °C, the number of B. bacteriovorus cells in the initial inoculation culture was estimated by counting plaque forming units (PFU). Enumeration of B. bacteriovorus by plaques count ensures that only viable cells are counted and, in our experience, is preferable over other methods based on microscopy and/or fluorescence. Pictures of plaques were acquired by the aid of a plaque visualization chamber, specially developed in this study for this purpose (Fig. S9). All absorbance values were subtracted of the related blanks. Then, absorbance values of test samples (B. bacteriovorus co-cultures) were subtracted from the control values (E. coli without B. bacteriovorus) and plotted in graph against the logarithm of antibiotic concentrations. The resulting Δ curve is an indication of B. bacteriovorus growth. Data was expressed as percentage of growth and plotted in a graph of log(inhibitor) vs. response. The minimal inhibitory concentration (MIC) value was defined as the concentration of antibiotic that prevent B. bacteriovorus growth and were calculated by fitting B. bacteriovorus growth inhibition curves with a Gompertz modified equation[15] (using GraphPad Prism 5). […] Direct cell growth measurements of B. bacteriovorus upon prey bacteria can be estimated by reduction of the optical density at 600 nm (OD600) (i.e. the loss of culture turbidity by B. bacteriovorus-induced lysis of prey cells). In this study, we designed a 96-well based method for the determination of antibiotic MICs for B. bacteriovorus. B. bacteriovorus HD100 cells were added to an E. coli culture and the reduction of OD600 measured in absence and presence of different concentrations of antibiotics. Assays were conducted in a solution of Ca/HEPES buffer and the exhausted medium transferred with the E. coli overnight culture and the B. bacteriovorus dilution. Therefore, E. coli cells were in the stationary phase and their growth during the assays was negligible. […] MIC values are dependent on the initial PPR used in the assay, as standard MIC assays are dependent on the initial bacterial concentration. However, B. bacteriovorus numbers and therefore, the initial PPR can be estimated reliably only after the assay by plating in double layer agar plates. The relation between initial PPR and MIC values was then investigated by adding different numbers of B. bacteriovorus cells to the fixed number of E. coli prey cells in parallel replicated experiments (on different rows of the same plate containing replicated antibiotic serial dilutions). […]

MIC [1] [µg/mL] | MIC [2] [µg/mL] | Structure (SMILES)
0.14 (≈ 0.365 µM) | 0.42 ± 0.06 (≈ 1.1 µM) | C[C@@H](O)[C@H]1C(=O)N2C(C(=O)O)=C(S[C@@H]3CN[C@H](C(=O)N(C)C)C3)[C@H](C)[C@H]12 [Meropenem]
5.4 (≈ 15.5 µM) | 1.3 ± 0.2 (≈ 3.72 µM) | CC1(C)S[C@@H]2[C@H](NC(=O)[C@H](N)c3ccccc3)C(=O)N2[C@H]1C(=O)O [Ampicillin]
0.06 (≈ 0.102 µM) | 0.7 ± 0.02 (≈ 1.2 µM) | NCC[C@H](O)C(=O)N[C@@H]1C[C@H](N)[C@@H](O[C@H]2O[C@H](CN)[C@@H](O)[C@H](O)[C@H]2O)[C@H](O)[C@H]1O[C@H]1O[C@H](CO)[C@@H](O)[C@H](N)[C@H]1O [Amikacin]
122 (≈ 236 µM) | 2.5 ± 0.5 (≈ 4.83 µM) | CCN1CCN(C(=O)N[C@@H](C(=O)N[C@@H]2C(=O)N3[C@@H]2SC(C)(C)[C@@H]3C(=O)O)c2ccccc2)C(=O)C1=O [Piperacillin]
 | 7.9 ± 0.9 (≈ 19.4 µM) | CCC[C@@H]1C[C@@H](C(=O)N[C@@H]([C@H]2O[C@H](SC)[C@H](O)[C@@H](O)[C@H]2O)[C@@H](C)O)N(C)C1 [Lincomycin]
5.7 (≈ 13.1 µM) | 41 ± 4 (≈ 94.2 µM) | C[C@H]1[C@H](NC(=O)/C(=N\OC(C)(C)C(=O)O)c2csc(N)n2)C(=O)N1S(=O)(=O)O [Aztreonam]
19 (≈ 56.8 µM) | 3.4 ± 0.5 (≈ 10.2 µM) | CC1(C)S[C@@H]2[C@H](NC(=O)Cc3ccccc3)C(=O)N2[C@H]1C(=O)O [Penicillin G]
10 (≈ 30.9 µM) | 0.16 (≈ 0.495 µM) | O=C(N[C@H](CO)[C@H](O)c1ccc([N+](=O)[O-])cc1)C(Cl)Cl [Chloramphenicol]
 | 16 ± 1 (≈ 11 µM) | CN[C@H](CC(C)C)C(=O)N[C@H]1C(=O)N[C@@H](CC(N)=O)C(=O)N[C@H]2C(=O)N[C@H]3C(=O)N[C@H](C(=O)N[C@H](C(=O)O)c4cc(O)cc(O)c4-c4cc3ccc4O)[C@H](O)c3ccc(c(Cl)c3)Oc3cc2cc(c3O[C@@H]2O[C@H](CO)[C@@H](O)[C@H](O)[C@H]2O[C@H]2C[C@](C)(N)[C@H](O)[C@H](C)O2)Oc2ccc(cc2Cl)[C@H]1O [Vancomycin]
0.081 (≈ 0.167 µM) | 0.69 ± 0.06 (≈ 1.42 µM) | NC[C@H]1O[C@H](O[C@H]2[C@H](O)[C@@H](O[C@H]3O[C@H](CO)[C@@H](O)[C@H](N)[C@H]3O)[C@H](N)C[C@@H]2N)[C@H](O)[C@@H](O)[C@@H]1O [Kanamycin]
4.8 (≈ 10.8 µM) | 1.7 ± 0.2 (≈ 3.83 µM) | CN(C)[C@@H]1C(O)=C(C(N)=O)C(=O)[C@@]2(O)C(O)=C3C(=O)c4c(O)cccc4[C@@](C)(O)[C@H]3C[C@@H]12 [Tetracycline]
19 (≈ 34.8 µM) | 7.8 ± 0.4 (≈ 14.3 µM) | CC(C)(O/N=C(\C(=O)N[C@@H]1C(=O)N2C(C(=O)[O-])=C(C[n+]3ccccc3)CS[C@H]12)c1csc(N)n1)C(=O)O [Ceftazidime]
10 (≈ 27.2 µM) | 18 ± 2 (≈ 48.9 µM) | N[C@@H](C(=O)N[C@@H]1C(=O)N2C(C(=O)O)=C(Cl)CS[C@H]12)c1ccccc1 [Cefaclor]
0.13 (≈ 0.392 µM) | 0.31 ± 0.04 (≈ 0.936 µM) | O=C(O)c1cn(C2CC2)c2cc(N3CCNCC3)c(F)cc2c1=O [Ciprofloxacin]
2.3 (≈ 3.93 µM) | 0.59 ± 0.01 (≈ 1.01 µM) | CN(C)c1cc(NC(=O)CNC(C)(C)C)c(O)c2c1C[C@H]1C[C@H]3[C@H](N(C)C)C(O)=C(C(N)=O)C(=O)[C@@]3(O)C(O)=C1C2=O [Tigecycline]
 | 223 ± 24 (≈ 768 µM) | COc1cc(Cc2cnc(N)nc2N)cc(OC)c1OC [TMP, trimethoprim]
0.6 (≈ 0.929 µM) | 1.3 ± 0.3 (≈ 2.01 µM) | CCN1CCN(C(=O)N[C@@H](C(=O)N[C@@H]2C(=O)N3C(C(=O)O)=C(CSc4nnnn4C)CS[C@H]23)c2ccc(O)cc2)C(=O)C1=O [Cefoperazone]
0.064 (≈ 0.177 µM) | 0.23 ± 0.02 (≈ 0.636 µM) | C[C@H]1COc2c(N3CCN(C)CC3)c(F)cc3c(=O)c(C(=O)O)cn1c23 [Levofloxacin]
2 (≈ 4.4 µM) | 0.51 ± 0.07 (≈ 1.12 µM) | Cc1nnc(SCC2=C(C(=O)O)N3C(=O)[C@@H](NC(=O)Cn4cnnn4)[C@H]3SC2)s1 [Cefazolin]

Structure (SMILES) | MIC [1] [µg/mL] | MIC [2] [µg/mL]
CNC(C)[C@@H]1CC[C@@H](N)[C@@H](O[C@H]2[C@H](O)[C@@H](O[C@H]3OC[C@](C)(O)[C@H](NC)[C@H]3O)[C@H](N)C[C@@H]2N)O1 (stereo partly shown) [Gentamicin] | 0.0084 (≈ 0.0176 µM) | 0.06 (≈ 0.126 µM)
